Test results reported in ChEMBL document CHEMBL4118134, “Design, synthesis, and evaluation of novel N-1 fluoroquinolone derivatives: Probing for binding contact with the active site tyrosine of gyrase” (Bioorg Med Chem Lett, 2018).
Activity calls are given as the source filed them. The rule behind the calls is not given here.

Columns and labels:
[1] = target: T1, DNA gyrase (Escherichia coli) (UniProt P0AES6+P0AES4); test: Poison activity at Escherichia coli DNA gyrase assessed as increase in linear DNA generation at 10 uM using supercoiled pBR322 DNA incubated for 10 mins by ethidium bromide staining based gel electrophoresis based DNA cleavage assay relative to untreated control; assay type: protein-complex assay
[2] = target: T1, DNA gyrase (Escherichia coli); test: Inhibition of Escherichia coli DNA gyrase subunit GyrA/GyrB supercoiling activity at 10 uM using relaxed pBR322 DNA incubated for 15 mins by ethidium bromide staining based gel electrophoresis method; assay type: protein-complex assay
Homo sapiens [3] = organism: Homo sapiens; test: Inhibition of human topoisomerase 2 assessed as reduction in decatenatation of kinetoplast DNA at 200 uM incubated for 15 mins by ethidium bromide staining based gel electrophoresis method
DNA gyrase = DNA gyrase (Escherichia coli, UniProt P0AES4+P0AES6); test: Inhibition of Escherichia coli DNA gyrase subunit GyrA/GyrB supercoiling activity using relaxed pBR322 DNA incubated for 15 mins by ethidium bromide staining based gel electrophoresis method; assay type: protein-complex assay
[4] = Inhibition of human topoisomerase 2 assessed as reduction in decatenatation of kinetoplast DNA incubated for 15 mins by ethidium bromide staining based gel electrophoresis method
Homo sapiens [5] = organism: Homo sapiens; test: Poison activity at human topoisomerase 2 assessed as increase in linear DNA generation at 5 to 10 uM incubated for 10 mins by ethidium bromide staining based gel electrophoresis based DNA cleavage assay relative to untreated control

inhibition [2] | inhibition (Homo sapiens [3]) | IC50 (DNA gyrase) | IC50 [4] | SMILES | fold change (FC) [1] | Activity (Homo sapiens [5])
20.2% | – | – | – | COc1c(N2CC[C@@H](CN)C2)c(F)cc2c(=O)c(C(=O)O)cn(CCCCCN3C(=O)c4ccccc4C3=O)c12 | < 2 | –
< 5% | – | – | – | COc1c(N2CC[C@@H](CN)C2)c(F)cc2c(=O)c(C(=O)O)cn(CCCN3C(=O)c4ccccc4C3=O)c12 | < 2 | –
< 5% | – | – | – | CCN1CCN(c2c(F)cc3c(=O)c(C(=O)O)cn(CCCCCN)c3c2OC)CC1 | < 2 | –
37.7% | – | – | – | COc1c(N2CC[C@@H](CN)C2)c(F)cc2c(=O)c(C(=O)O)cn(Cc3ccccc3)c12 | < 2 | –
20.4% | – | – | – | COc1c(N2CC[C@@H](CN)C2)c(F)cc2c(=O)c(C(=O)O)cn(CCCCN3C(=O)c4ccccc4C3=O)c12 | < 2 | –
12.3% | – | – | – | COc1c(N2CC[C@@H](CN)C2)c(F)cc2c(=O)c(C(=O)O)cn(CCCCCN)c12 | < 2 | –
25.2% | – | – | – | COc1ccc(Cn2cc(C(=O)O)c(=O)c3cc(F)c(N4CC[C@@H](CN)C4)c(OC)c32)cc1 | < 2 | –
< 5% | – | – | – | COc1c(N2CC[C@@H](CN)C2)c(F)cc2c(=O)c(C(=O)O)cn(CCCN)c12 | < 2 | –
25.7% | – | – | – | COc1c(N2CC[C@@H](CN)C2)c(F)cc2c(=O)c(C(=O)O)cn(CCCCN)c12 | < 2 | –
> 96% | inactive | 120 nM | – | COc1c(N2CC[C@@H](CN)C2)c(F)cc2c1N(C1CC1)CC(C(=O)O)C2=O (stereo not given in full) | > 4 | –
– | – | – | 60 µM | COc1cc([C@@H]2c3cc4c(cc3[C@@H](O[C@@H]3O[C@@H]5CO[C@@H](C)O[C@H]5[C@H](O)[C@H]3O)[C@H]3COC(=O)[C@H]23)OCO4)cc(OC)c1O [ETOPOSIDE] | – | 400 to 800%
27.1% | – | – | – | COc1c(N2CC[C@@H](CN)C2)c(F)cc2c(=O)c(C(=O)O)cn(CCCc3ccccc3)c12 | < 2 | –
11% | – | – | – | COc1c(N2CC[C@@H](CN)C2)c(F)cc2c(=O)c(C(=O)O)cn(CCc3ccccc3)c12 | < 2 | –
23.3% | – | – | – | CCN1CCN(c2c(F)cc3c(=O)c(C(=O)O)cn(Cc4ccccc4)c3c2OC)CC1 | < 2 | –
